From patent US7541368B2, “Pyrazoles as inhibitors of tumor necrosis factor” (Aventis Pharmaceuticals Inc., priority 2003, dated 2009) come the findings set out here.

For this assay, the system named is TNF-alpha release in THP-1 cells. In words: LPS-induced TNF-alpha release in THP-1 cells. Type of assay: cell-based. The conditions noted are these: Homo sapiens, THP-1, LPS-stimulated THP-1 cells; read-out: 50% inhibition in the LPS-induced TNF-alpha release in THP-1 cells assay at concentrations within the range. The protocol:
The effects of compounds on TNF-alpha production by lipopolysaccharide (LPS)-stimulated […] monocytes were examined as follows.
Undifferentiated THP-1 cells were maintained in RPMI 1640 with Glutamax I containing β-mercaptoethananol (50 μM) and foetal calf serum (FCS-10%) at densities of about 1×10^6 cells per ml. For incubations without and with test reagents, cells were seeded at the indicated densities under serum-deprived (1% FCS) conditions. Compounds were dissolved in dimethylsulfoxide (DMSO-100%) and incubated with the cells to give a fmal DMSO concentration of 0.3%. Control and untreated cell samples were incubated with DMSO (0.3%).
THP-1 cells (1×10 ^6 cells/ml, total volume 150 μl) in culture medium were incubated for 1 hour (5% CO2, 37° C.) with fresh medium containing compounds or vehicle (0.1-0.3% dimethylsulfoxide). LPS (20 μg/ml) was then added to the cells and the incubation continued for a fuirther 18 hours. Cell supernatants were removed into 96 well plates for storage at −20° C.
TNF-alpha concentrations in cell supernatants were quantified by sandwich ELISA. Briefly, ELISA plates were coated overnight with 2 μg/ml of mouse anti-human TNF-alpha antibody in bicarbonate buffer (pH 9.9). After washing the wells with wash buffer (0.05% (v/v) Tween in PBS)and blocking unoccupied sites (1% BSA in wash buffer), monocyte supernatant samples or human recombinant TNF-alpha standards were added into the corresponding wells of the ELISA plate at 1:10 dilution. Biotinylated rabbit polyclonal anti-human TNF-alpha antibody (3 μg/ml) was used as the second antibody and streptavidin-horseradish peroxidase was used as the detection antibody. The peroxidase substrate is 3,3′,5,5′-tetramethylbenzidine (TMB) in the presence of hydrogen peroxide.
TNFα concentrations in supernatants from control and LPS-stimulated monocyte incubations were calculated by interpolation from a standard (log/log) curve (0.125-16 ng/ml) fitted by Excel Fit using the Activity Base software. Compounds were tested within the concentration range of 1×10^−9M to 1×10^−6M.
Take `Cc1ccc(-n2nc(C(C)(C)C)cc2NC(=O)Nc2cccc(CC3CCN(C(=O)c4ccc(OC(F)F)cc4)CC3)c2)cc1` [Compound A111, 1-(5-tert-Butyl-2-p-tolyl-2H-pyrazol-3-yl)-3-{3-[1-(4-difluoromethoxy-benzoyl)-piperidin-4-ylmethyl]-phenyl}-urea]: the IC50 lay within 10 to 500 nM.

As to `Cc1ccc(-n2nc(C(C)(C)C)cc2NC(=O)Nc2ccc(CC3CCN(C(=O)Nc4ccc(N(C)C)cc4)CC3)cc2)cc1` [Compound A450, 4-{4-[3-(5-tert-Butyl-2-p-tolyl-2H-pyrazol-3-yl)-ureido]-benzyl}-piperidine-1-carboxylic acid (4-dimethylamino-phenyl)-amide], the IC50 lay within 10 to 500 nM.

For `Cc1ccc(-n2nc(C(C)(C)C)cc2NC(=O)Nc2ccc(CC3CCN(C(=O)c4ccco4)CC3)cc2)cc1` [Compound A237, 1-(5-tert-Butyl-2-p-tolyl-2H-pyrazol-3-yl)-3-{4-[1-(furan-2-carbonyl)-piperidin-4-ylmethyl]-phenyl}-urea], the IC50 lay within 10 to 500 nM.

For `COc1ccc(OC)c(CC(=O)N2CCC(Cc3cccc(NC(=O)Nc4cc(C(C)(C)C)nn4-c4ccc(C)cc4)c3)CC2)c1` [Compound A1646, 1-(5-tert-Butyl-2-p-tolyl-2H-pyrazol-3-yl)-3-(3-{1-[2-(2,5-dimethoxy-phenyl)-acetyl]-piperidin-4-ylmethyl}-phenyl)-urea], the IC50 is 10 to 500 nM.

Consider `COc1ccc(OC)c(S(=O)(=O)N2CCC(Cc3ccc(NC(=O)Nc4cc(C(C)(C)C)nn4-c4ccc(C)cc4)cc3)CC2)c1` [Compound A564, 1-(5-tert-Butyl-2-p-tolyl-2H-pyrazol-3-yl)-3-{4-[1-(2,5-dimethoxy-benzenesulfonyl)-piperidin-4-ylmethyl]-phenyl}-urea], for which the IC50 was 10 to 500 nM.

Consider `Cc1ccc(-n2nc(C(C)(C)C)cc2NC(=O)Nc2ccc(CC3CCN(C(=O)c4ccc(Cl)nc4)CC3)cc2)cc1` [Compound A332, 1-(5-tert-Butyl-2-p-tolyl-2H-pyrazol-3-yl)-3-{4-[1-(6-chloro-pyridine-3-carbonyl)-piperidin-4-ylmethyl]-phenyl}-urea], for which the IC50 lay within 10 to 500 nM.

Take `Cc1ccc(-n2nc(C(C)(C)C)cc2NC(=O)Nc2ccc(CC3CCN(C(=O)Cc4cccs4)CC3)cc2)cc1` [Compound A388, 1-(5-tert-Butyl-2-p-tolyl-2H-pyrazol-3-yl)-3-{4-[1-(2-thiophen-2-yl-acetyl)-piperidin-4-ylmethyl]-phenyl}-urea]: the IC50 lay within 10 to 500 nM.

With `Cc1ccc(-n2nc(C(C)(C)C)cc2NC(=O)Nc2cccc(CC3CCN(C(=O)c4ccc(Cl)s4)CC3)c2)cc1` [Compound A131, 1-(5-tert-Butyl-2-p-tolyl-2H-pyrazol-3-yl)-3-{3-[1-(5-chloro-thiophene-2-carbonyl)-piperidin-4-ylmethyl]-phenyl}-urea], the IC50 fell in the range of 10 to 500 nM.

Regarding `Cc1ccc(-n2nc(C(C)(C)C)cc2NC(=O)Nc2ccc(CC3CCN(C(=O)C4(C)CC4)CC3)cc2)cc1` [Compound A206, 1-(5-tert-Butyl-2-p-tolyl-2H-pyrazol-3-yl)-3-{4-[1-(1-methyl-cyclopropanecarbonyl)-piperidin-4-ylmethyl]-phenyl}-urea], the IC50 lay within 10 to 500 nM.

Take `Cc1ccc(-n2nc(C(C)(C)C)cc2NC(=O)Nc2ccc(CC3CCN(C(=O)c4ccc(OC(F)F)cc4)CC3)cc2)cc1` [Compound A306, 1-(5-tert-Butyl-2-p-tolyl-2H-pyrazol-3-yl)-3-{4-[1-(4-difluoromethoxy-benzoyl)-piperidin-4-ylmethyl]-phenyl}-urea]: the IC50 lay within 10 to 500 nM.

For the molecule `Cc1ccc(-n2nc(C(C)(C)C)cc2NC(=O)Nc2ccc(CC3CC4CCC(C3)N4C(=O)Cc3ccc(F)cc3F)cc2)cc1` (centres unmarked) [Compound A1364, 1-(5-tert-Butyl-2-p-tolyl-2H-pyrazol-3-yl)-3-(4-{8-[2-(2,4-difluoro-phenyl)-acetyl]-8-aza-bicyclo[3.2.1]oct-3-ylmethyl}-phenyl)-urea], the IC50 is 10 to 500 nM.
